The results in this text go back to paper PMC8291583, “Design, synthesis, and evaluation of 3,7-substituted coumarin derivatives as multifunctional Alzheimer’s disease agents” (Journal of Enzyme Inhibition and Medicinal Chemistry, 2021).

“And” between values parts separate entries of the source, which are not always exact repeats. Equal values may be shown once. Read-outs that look alike come from different tables or passages of the source. Where only a bound is given, the exact number is not on record here.

One experiment addresses recombinant human MAO-B (Homo sapiens, UniProt P27338). The experiment is described as follows: MAO-B fluorometric assay (kynuramine). The class given is biochemical. As to conditions: for IC50: kynuramine 30 µM, 37 °C, read-out: MAO-B IC50. The method, then: . The stock was then further diluted by factors of ten to produce solutions of 1 mM, 100 µM, 10 µM, 1 µM, and 0.1 µM which would correspond to concentrations of 100 µM, 10 µM, 1 µM, 0.1 µM, and 0.01 µM in the final reaction mixture. A potassium phosphate buffer ([…] 100 mM, pH 7.4, 0.9% w/v NaCl) was prepared and refrigerated until further use. The enzyme stock solutions were prepared by dissolving 2.5 mg of enzyme in 33.33 ml of phosphate buffer to produce stock solutions of 0.075 mg/ml which were stored in aliquots at −80 °C until use. […]. The substrate was prepared by dissolving kynuramine in potassium buffer and was prepared as two separate concentrations; […]. The fresh substrate was prepared on the day of the assay. The assay was carried out in 2 ml Eppendorf vials. […] Following this, 25 µl of the enzyme stock were added to each vial in 10 s intervals and the vials were incubated at 37 °C for 10 min. After this time period 15 µl of kynuramine (750 µM for MAO-A and 500 µM for MAO-B) was added at 10 s intervals and further incubated for 20 min. To stop the reaction at the end of this time 150 hx00B5;l of 2 N NaOH was added and the mixture was shaken. Using a micropipette 80 hx00B5;l of the mixture was transferred to a well in a black 96 well plate. The plate was placed in the fluorescent plate reader and read at an excitation/emission wavelength of 310 nm/410 nm. Each assay was run in triplicate and the data were analysed with Graph Pad Prism 8 software (San Diego, USA).
The MAO inhibitory activity of the compounds was assessed using a fluorometric assay with recombinant human MAO-A and human MAO-B enzymes. […].

The target of another experiment is T1, recombinant human MAO-A (Homo sapiens, UniProt P21397).
T1 sequence (P21397 1-527): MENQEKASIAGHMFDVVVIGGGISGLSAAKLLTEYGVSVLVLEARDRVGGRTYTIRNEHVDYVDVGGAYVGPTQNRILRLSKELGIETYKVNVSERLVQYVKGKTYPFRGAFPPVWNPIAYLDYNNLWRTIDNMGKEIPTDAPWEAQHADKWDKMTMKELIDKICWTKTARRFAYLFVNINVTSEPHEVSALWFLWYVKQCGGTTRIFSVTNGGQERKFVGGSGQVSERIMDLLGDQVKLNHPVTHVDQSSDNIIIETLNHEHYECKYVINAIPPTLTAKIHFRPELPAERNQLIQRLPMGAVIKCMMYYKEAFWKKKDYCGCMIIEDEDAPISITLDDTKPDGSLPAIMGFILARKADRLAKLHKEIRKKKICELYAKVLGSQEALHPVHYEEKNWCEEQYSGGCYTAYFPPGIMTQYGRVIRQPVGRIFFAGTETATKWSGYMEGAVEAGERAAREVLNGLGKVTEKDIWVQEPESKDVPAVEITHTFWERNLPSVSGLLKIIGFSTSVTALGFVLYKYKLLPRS
The experiment is described as follows: biochemical. As to conditions: 37 °C. Here is the method:
The stock was then further diluted by factors of ten to produce solutions of 1 mM, 100 µM, 10 µM, 1 µM, and 0.1 µM which would correspond to concentrations of 100 µM, 10 µM, 1 µM, 0.1 µM, and 0.01 µM in the final reaction mixture. A potassium phosphate buffer ([…] 100 mM, pH 7.4, 0.9% w/v NaCl) was prepared and refrigerated until further use. The enzyme stock solutions were prepared by dissolving 2.5 mg of enzyme in 33.33 ml of phosphate buffer to produce stock solutions of 0.075 mg/ml which were stored in aliquots at −80 °C until use. Once in the final reaction mixture, this enzyme solution will have a concentration of 0.0075 mg/ml. […] The fresh substrate was prepared on the day of the assay. The assay was carried out in 2 ml Eppendorf vials. […] Following this, 25 µl of the enzyme stock were added to each vial in 10 s intervals and the vials were incubated at 37 °C for 10 min. […] To stop the reaction at the end of this time 150 hx00B5;l of 2 N NaOH was added and the mixture was shaken. Using a micropipette 80 hx00B5;l of the mixture was transferred to a well in a black 96 well plate. The plate was placed in the fluorescent plate reader and read at an excitation/emission wavelength of 310 nm/410 nm. Each assay was run in triplicate and the data were analysed with Graph Pad Prism 8 software (San Diego, USA).
The MAO inhibitory activity of the compounds was assessed using a fluorometric assay with recombinant human MAO-A and human MAO-B enzymes.

In experiment [1] the target is Electrophorus electricus AChE (Electrophorus electricus, UniProt O42275). Put plainly: biochemical. Particulars: for IC50: 25 °C, pH 8. The method, then: (§1) Cholinesterase activity is determined using a modified colorimetric method first described by Ellman[40]. […] The stock was then further diluted by factors of ten to produce solutions of 1 mM, 100 µM, 10 µM, 1 µM, and 0.1 µM which corresponds to concentrations of 100 µM, 10 µM, 1 µM, 0.1 µM, and 0.01 µM in the final reaction mixture. The test concentrations were stored in the refrigerator until the day of the assay. Trisma HCl buffer (50 mM, adjusted to pH 8 with 2 N NaOH) was prepared as the buffer and used to prepare enzyme stock solution (22 U/ml for Electrophorus electricus AChE and 12 U/ml BuChE from equine serum), 15 mM acetylthiocholine iodide, 15 mM S-butyrylthiocholine iodide and 1.5 mM DTNB (Ellman’s reagent). The enzyme stock solution was stabilised with 1% bovine serum albumin and stored in aliquots at −80 °C. A clear, flat bottom 96 well plate was used to perform the experiments with each concentration performed in triplicate. Prior to the assay the background absorbance for each compound at the different test concentrations was measured and accounted for when reading the final absorbance. […] Following this, 30 µl of the substrate was added to each well simultaneously using a multi pipette. […] A one-sample t-test was performed on the data to test for statistical significance.
Electrophorus electricus AChE, sequence (O42275 24-633): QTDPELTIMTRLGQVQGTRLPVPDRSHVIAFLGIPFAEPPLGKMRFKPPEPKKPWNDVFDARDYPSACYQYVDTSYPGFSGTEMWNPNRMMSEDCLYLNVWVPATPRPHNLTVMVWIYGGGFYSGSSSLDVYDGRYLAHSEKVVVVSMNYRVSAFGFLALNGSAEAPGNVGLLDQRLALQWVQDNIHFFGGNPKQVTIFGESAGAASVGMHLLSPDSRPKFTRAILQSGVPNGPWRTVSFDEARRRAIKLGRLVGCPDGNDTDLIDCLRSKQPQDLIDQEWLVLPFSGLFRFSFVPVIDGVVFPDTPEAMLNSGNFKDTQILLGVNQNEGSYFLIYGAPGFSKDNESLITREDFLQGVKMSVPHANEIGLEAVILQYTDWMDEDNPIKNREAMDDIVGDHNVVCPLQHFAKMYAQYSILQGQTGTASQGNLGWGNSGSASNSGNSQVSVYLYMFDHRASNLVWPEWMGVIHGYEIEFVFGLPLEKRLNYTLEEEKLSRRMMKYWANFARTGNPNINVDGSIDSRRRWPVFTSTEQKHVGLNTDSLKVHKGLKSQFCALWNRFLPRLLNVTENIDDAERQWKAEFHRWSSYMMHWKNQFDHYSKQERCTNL

Another experiment has as its target T2, BuChE from equine serum (Equus caballus, UniProt P81908).
T2 construct: 12 U/ml BuChE from equine serum; from tissue; host or cells: equine serum
The experiment is described as follows: biochemical. The method, then: as §1

[2] abbreviates: kynuramine 45 µM, read-out: MAO-A IC50.
Where [3] appears, read: Ellman method, read-out: AChE IC50.
Where [4] appears, read: Ellman method, 25 °C, pH 8, read-out: BuChE IC50.

T2 sequence (P81908 whole entry): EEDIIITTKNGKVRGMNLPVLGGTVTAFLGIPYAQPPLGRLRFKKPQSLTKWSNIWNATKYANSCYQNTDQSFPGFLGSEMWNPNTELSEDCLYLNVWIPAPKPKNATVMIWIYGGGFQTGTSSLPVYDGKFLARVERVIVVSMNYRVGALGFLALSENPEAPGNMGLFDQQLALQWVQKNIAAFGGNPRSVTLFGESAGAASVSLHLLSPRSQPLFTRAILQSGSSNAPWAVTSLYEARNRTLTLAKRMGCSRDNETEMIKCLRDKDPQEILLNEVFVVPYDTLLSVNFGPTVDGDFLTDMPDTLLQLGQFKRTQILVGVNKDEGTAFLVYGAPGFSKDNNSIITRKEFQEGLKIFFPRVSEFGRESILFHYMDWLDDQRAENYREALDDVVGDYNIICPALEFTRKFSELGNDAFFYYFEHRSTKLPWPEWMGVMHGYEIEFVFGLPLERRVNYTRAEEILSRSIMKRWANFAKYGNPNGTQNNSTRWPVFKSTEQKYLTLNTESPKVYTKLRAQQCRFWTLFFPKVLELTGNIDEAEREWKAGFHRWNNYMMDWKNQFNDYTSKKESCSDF
recombinant human MAO-B, sequence (P27338 whole entry): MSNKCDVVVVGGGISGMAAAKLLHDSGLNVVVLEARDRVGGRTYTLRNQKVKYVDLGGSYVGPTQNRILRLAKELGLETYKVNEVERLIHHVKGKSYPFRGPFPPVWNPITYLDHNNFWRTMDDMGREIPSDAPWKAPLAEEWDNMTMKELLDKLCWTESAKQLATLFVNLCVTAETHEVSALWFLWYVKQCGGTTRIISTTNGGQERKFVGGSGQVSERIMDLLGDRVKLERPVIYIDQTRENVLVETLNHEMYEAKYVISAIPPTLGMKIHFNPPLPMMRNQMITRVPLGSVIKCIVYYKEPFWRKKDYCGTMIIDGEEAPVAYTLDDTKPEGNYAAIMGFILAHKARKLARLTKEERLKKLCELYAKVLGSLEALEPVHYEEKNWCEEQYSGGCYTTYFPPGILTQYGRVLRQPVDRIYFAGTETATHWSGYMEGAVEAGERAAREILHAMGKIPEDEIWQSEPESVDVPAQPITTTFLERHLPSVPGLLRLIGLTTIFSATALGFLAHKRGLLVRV

As to `O=c1oc2cc(OCCc3ccccc3)ccc2cc1CBr` [Compound 4, 3-(bromomethyl)-7-(2-phenylethoxy)-2H-1-benzopyran-2-one], the IC50 on recombinant human MAO-B was > 100 µM; on recombinant human MAO-A (setting [2]) it was 0.48 µM and 0.476 µM; in experiment [1] (setting [3]), > 100 µM; on BuChE from equine serum (setting [4]), > 100 µM.

Turning to `CCN(CC)C(=O)Oc1ccc2cc(CBr)c(=O)oc2c1` [Compound 5, 3-(bromomethyl)-2-oxo-2H-1-benzopyran-7-yl-diethylcarbamate], the “SI MAO-B (MAO-B selectivity index = IC50(MAO-A)/IC50(MAO-B))” value at recombinant human MAO-B is given as 1.05. For the same compound, the concentration for half-maximal inhibition (IC50) was 0.333 µM on recombinant human MAO-B; 0.36 µM and 0.355 µM on recombinant human MAO-A (setting [2]); ~108 µM and 108 µM in experiment [1] (setting [3]); 23.3 µM on BuChE from equine serum (setting [4]). In addition, in experiment [1] (at 100 µM, read-out: AChE enzyme inhibition), the inhibition at 100 µM is 49%.

Turning to `C#CCNCc1cc2ccc(OCCc3ccccc3)cc2oc1=O` [Compound 6, 7-(2-phenylethoxy)-3-{[(prop-2-yn-1-yl)amino]methyl}-2H-1-benzopyran-2-one], the “SI MAO-B (MAO-B selectivity index = IC50(MAO-A)/IC50(MAO-B))” value on recombinant human MAO-B stood at 133.2. Moreover, the IC50 at recombinant human MAO-B is 0.029 µM; on recombinant human MAO-A (setting [2]) it was 3.86 µM; in experiment [1] (setting [3]) it was > 100 µM; at BuChE from equine serum (setting [4]), > 100 µM.

Regarding `C#CCNCc1cc2ccc(OC(=O)N(CC)CC)cc2oc1=O` [Compound 7, 2-oxo-3-{[(prop-2-yn-1-yl)amino]methyl}-2H-1-benzopyran-7-yl-diethylcarbamate], the “SI MAO-B (MAO-B selectivity index = IC50(MAO-A)/IC50(MAO-B))” value at recombinant human MAO-B is on record as 205.9. Besides, the half-maximal inhibitory concentration (IC50) is 0.101 µM on recombinant human MAO-B; 20.8 µM at recombinant human MAO-A (MAO-A IC50, kynuramine 45 µM); > 100 µM in experiment [1] (AChE IC50, Ellman method); > 100 µM against BuChE from equine serum.
